Earlier results as cited in patent publication US20240189229A1, “LIQUID PHARMACEUTICAL COMPOSITIONS OF BACLOFEN FOR ORAL ADMINISTRATION” (ANI Pharmaceuticals, Inc., priority 2022, published 2024).
Read-outs that look alike come from different tables or passages of the source.

NCC(CC(=O)O)c1ccc(Cl)cc1 (centres unmarked) [Baclofen, 4-amino-3-(4-chlorophenyl)-butanoic acid]
Concentration of baclofen obtained by dissolving (aqueous solution of 0.1N HCl (Ahuja 1985)): greater than 20 mg/mL | Concentration of baclofen obtained by dissolving (aqueous solution of 0.1N NaOH (Ahuja 1985)): greater than 20 mg/mL | Solubility in chloroform (chloroform): insoluble | Solubility in methanol (methanol): very slightly soluble | Solubility in water (water): slightly soluble
